This note sets out measurements from patent US20240217989A1, “Heteroaryl Fluoroalkenes As DGK Inhibitors” (Incyte Corporation, priority 2022, published 2024).

Each structure is given as a SMILES string. Bounds are passed on as bounds.

One assay deals with DGKζ (Homo sapiens, UniProt Q13574). Briefly: In vitro DGKζ inhibition assay (ADP-Glo). The format is biochemical. The note with it: His-tagged human recombinant enzyme; 0.4 nM DGKζ, 30 μM ATP, 20 μM DLG; 90 minute incubation; ADP-Glo luminescence. The essentials:
(§1)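 His-tagged human recombinant enzymes with DLG lipid substrate (20 μM) in Tris pH 7.5 buffer with MgCl2/CaCl2; DGKα 0.1 nM with 50 μM ATP, DGKζ 0.4 nM with 30 μM ATP.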
Background: In ADP-Glo the light output rises with the ADP produced.

In another assay the target is T1, DGKα (Homo sapiens, UniProt P23743).
T1 construct: His; purchased Signal Chem D21-10BH
T1 sequence (P23743 whole entry): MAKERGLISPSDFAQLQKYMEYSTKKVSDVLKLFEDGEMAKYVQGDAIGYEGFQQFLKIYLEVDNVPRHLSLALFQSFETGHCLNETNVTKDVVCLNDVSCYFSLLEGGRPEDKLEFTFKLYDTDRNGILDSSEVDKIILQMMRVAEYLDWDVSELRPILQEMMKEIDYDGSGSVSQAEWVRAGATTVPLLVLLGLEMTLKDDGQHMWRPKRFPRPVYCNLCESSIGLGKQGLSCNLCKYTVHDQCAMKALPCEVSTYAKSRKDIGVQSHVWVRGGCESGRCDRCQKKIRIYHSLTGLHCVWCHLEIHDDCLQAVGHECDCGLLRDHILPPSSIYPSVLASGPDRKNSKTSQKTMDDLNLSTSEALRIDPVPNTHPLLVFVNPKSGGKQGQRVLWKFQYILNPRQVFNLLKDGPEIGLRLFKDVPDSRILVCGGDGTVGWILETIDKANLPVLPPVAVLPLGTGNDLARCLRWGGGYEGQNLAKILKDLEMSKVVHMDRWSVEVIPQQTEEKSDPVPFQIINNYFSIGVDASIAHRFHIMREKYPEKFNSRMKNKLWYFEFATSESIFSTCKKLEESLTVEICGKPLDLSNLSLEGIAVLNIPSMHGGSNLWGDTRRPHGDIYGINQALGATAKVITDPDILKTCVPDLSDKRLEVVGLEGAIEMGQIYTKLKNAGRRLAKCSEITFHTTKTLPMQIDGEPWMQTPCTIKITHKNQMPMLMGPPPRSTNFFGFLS
The experiment in a line: In vitro DGKα inhibition assay (ADP-Glo). The format is biochemical. The note with it: His-tagged human recombinant enzyme; 0.1 nM DGKα, 50 μM ATP, 20 μM DLG; 90 minute incubation; ADP-Glo luminescence. The essentials: as §1

DGKζ, sequence (Q13574 whole entry): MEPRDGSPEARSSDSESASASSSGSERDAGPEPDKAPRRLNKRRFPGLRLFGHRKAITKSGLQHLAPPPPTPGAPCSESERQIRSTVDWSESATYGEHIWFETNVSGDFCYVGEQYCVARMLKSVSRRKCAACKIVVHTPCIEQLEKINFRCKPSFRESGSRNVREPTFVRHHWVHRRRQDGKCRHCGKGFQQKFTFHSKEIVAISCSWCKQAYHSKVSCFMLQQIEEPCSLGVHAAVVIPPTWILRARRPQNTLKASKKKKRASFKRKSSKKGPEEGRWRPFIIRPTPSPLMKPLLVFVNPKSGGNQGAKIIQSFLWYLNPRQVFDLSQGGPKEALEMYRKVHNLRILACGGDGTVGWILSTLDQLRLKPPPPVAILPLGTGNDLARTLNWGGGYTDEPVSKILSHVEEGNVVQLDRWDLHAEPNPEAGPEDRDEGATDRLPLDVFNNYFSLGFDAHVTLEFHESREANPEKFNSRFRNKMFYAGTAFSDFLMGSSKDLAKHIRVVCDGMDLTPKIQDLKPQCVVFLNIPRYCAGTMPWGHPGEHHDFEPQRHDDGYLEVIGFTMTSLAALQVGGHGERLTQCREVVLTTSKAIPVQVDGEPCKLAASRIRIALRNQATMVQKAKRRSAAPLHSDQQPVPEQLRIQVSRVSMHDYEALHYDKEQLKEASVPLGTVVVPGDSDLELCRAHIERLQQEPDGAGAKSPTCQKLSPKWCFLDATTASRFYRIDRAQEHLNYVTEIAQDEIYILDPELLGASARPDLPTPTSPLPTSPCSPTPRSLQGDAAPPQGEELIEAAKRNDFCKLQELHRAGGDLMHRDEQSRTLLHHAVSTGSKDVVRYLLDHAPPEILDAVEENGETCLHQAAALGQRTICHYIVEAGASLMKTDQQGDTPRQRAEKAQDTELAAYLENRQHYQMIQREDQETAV

On to `OCCN1CCC2(CCCN(c3c(/C=C(\F)c4nccc(-c5cnsc5)n4)ccc(Oc4ccccc4F)c3C(F)(F)F)C2)CC1` [Example 45, (Z)-2-(2-(6-(2-Fluoro-2-(4-(isothiazol-4-yl)pyrimidin-2-yl)vinyl)-3-(2-fluorophenoxy)-2-(trifluoromethyl)phenyl)-2,9-diazaspiro[5.5]undecan-9-yl)ethan-1-ol], for which the IC50 at DGKζ and at DGKα was at most 20 nM in each case.

As to `CCN1CCC2(CCCN(c3c(/C=C(\F)c4nccc(-c5cnsc5)n4)ccc(Oc4ccccc4F)c3C(F)(F)F)C2)CC1` [Example 46, (Z)-4-(2-(2-(2-(9-Ethyl-2,9-diazaspiro[5.5]undecan-2-yl)-4-(2-fluorophenoxy)-3-(trifluoromethyl)phenyl)-1-fluorovinyl)pyrimidin-4-yl)isothiazole], the IC50 at DGKζ and at DGKα was at most 20 nM each time.

With `F/C(=C\c1ccc(Oc2cccc(F)c2F)c(C(F)(F)F)c1N1CCCC2(CCN(CC3CC3)CC2)C1)c1cncc(-c2cnsc2)n1` [Example 47, (Z)-4-(6-(2-(2-(9-(Cyclopropylmethyl)-2,9-diazaspiro[5.5]undecan-2-yl)-4-(2,3-difluorophenoxy)-3-(trifluoromethyl)phenyl)-1-fluorovinyl)pyrazin-2-yl)isothiazole], the IC50 on DGKζ and at DGKα was at most 20 nM throughout.

In the case of `F/C(=C\c1ccc(OC2CCCCC2)c(C(F)(F)F)c1N1CCCC2(CCN(CC3CC3)CC2)C1)c1cncc(-c2ccnnc2)n1` [Example 48, (Z)-2-(3-(Cyclohexyloxy)-6-(2-fluoro-2-(6-(pyridazin-4-yl)pyrazin-2-yl)vinyl)-2-(trifluoromethyl)phenyl)-9-(cyclopropylmethyl)-2,9-diazaspiro[5.5]undecane], the IC50 on DGKζ and at DGKα was at most 20 nM in each case.

Take `F/C(=C\c1ccc(Oc2cccc(F)c2F)c(C(F)(F)F)c1N1CCCC2(CCN(CC3CC3)CC2)C1)c1cncc(-c2ccns2)n1` [Example 49, (Z)-5-(6-(2-(2-(9-(Cyclopropylmethyl)-2,9-diazaspiro[5.5]undecan-2-yl)-4-(2,3-difluorophenoxy)-3-(trifluoromethyl)phenyl)-1-fluorovinyl)pyrazin-2-yl)isothiazole]: the IC50 at DGKζ and on DGKα was at most 20 nM each time.

Consider `F/C(=C\c1ccc(OC2CCCCC2)c(C(F)(F)F)c1N1CCCC2(CCN(CC3CC3)CC2)C1)c1nccc(-c2ccnnc2)n1` [Example 50, (Z)-2-(3-(Cyclohexyloxy)-6-(2-fluoro-2-(4-(pyridazin-4-yl)pyrimidin-2-yl)vinyl)-2-(trifluoromethyl)phenyl)-9-(cyclopropylmethyl)-2,9-diazaspiro[5.5]undecane], for which the IC50 at DGKζ and on DGKα was at most 20 nM throughout.

With `F/C(=C\c1ccc(OC2CCCC2)c(C(F)(F)F)c1N1CCCC2(CCN(CC3CC3)CC2)C1)c1nccc(-c2ccnnc2)n1` [Example 51, (Z)-2-(3-(Cyclopentyloxy)-6-(2-fluoro-2-(4-(pyridazin-4-yl)pyrimidin-2-yl)vinyl)-2-(trifluoromethyl)phenyl)-9-(cyclopropylmethyl)-2,9-diazaspiro[5.5]undecane], the IC50 at DGKζ and on DGKα was at most 20 nM throughout.

Turning to `F/C(=C\c1ccc(OC2CCC2)c(C(F)(F)F)c1N1CCCC2(CCN(CC3CC3)CC2)C1)c1nccc(-c2ccnnc2)n1` [Example 52, (Z)-2-(3-Cyclobutoxy-6-(2-fluoro-2-(4-(pyridazin-4-yl)pyrimidin-2-yl)vinyl)-2-(trifluoromethyl)phenyl)-9-(cyclopropylmethyl)-2,9-diazaspiro[5.5]undecane], the IC50 at DGKζ and at DGKα was at most 20 nM throughout.

Take `CCN1CCC2(CCCN(c3c(/C=C(\F)c4nccc(-c5ccnnc5)n4)ccc(OC4CCCC4)c3C(F)(F)F)C2)CC1` [Example 53, (Z)-2-(3-(Cyclopentyloxy)-6-(2-fluoro-2-(4-(pyridazin-4-yl)pyrimidin-2-yl)vinyl)-2-(trifluoromethyl)phenyl)-9-ethyl-2,9-diazaspiro[5.5]undecane]: the IC50 on DGKζ and at DGKα was at most 20 nM each time.

Consider `CCN1CCC2(CCCN(c3c(/C=C(\F)c4nccc(-c5ccnnc5)n4)ccc(OC4CC5CC(C5)C4)c3C(F)(F)F)C2)CC1` (stereo not drawn) [Example 54, (Z)-2-(3-(Bicyclo[3.1.1]heptan-3-yloxy)-6-(2-fluoro-2-(4-(pyridazin-4-yl)pyrimidin-2-yl)vinyl)-2-(trifluoromethyl)phenyl)-9-ethyl-2,9-diazaspiro[5.5]undecane], for which the IC50 at DGKζ and on DGKα was at most 20 nM each time.

Take `F/C(=C\c1ccc(Oc2ccccc2F)c(C(F)(F)F)c1N1CCCC2(CCN(CC3CC3)CC2)C1)c1nccc(-c2cnsc2)n1` [Example 55, (Z)-4-(2-(2-(2-(9-(Cyclopropylmethyl)-2,9-diazaspiro[5.5]undecan-2-yl)-4-(2-fluorophenoxy)-3-(trifluoromethyl)phenyl)-1-fluorovinyl)pyrimidin-4-yl)isothiazole]: the IC50 on DGKζ and on DGKα was at most 20 nM throughout.

`F/C(=C\c1ccc(Oc2ccccc2F)c(C(F)(F)F)c1N1CCCC2(CCN(CC3CC3)CC2)C1)c1cncc(-c2cnsc2)n1` [Example 56, (Z)-4-(6-(2-(2-(9-(Cyclopropylmethyl)-2,9-diazaspiro[5.5]undecan-2-yl)-4-(2-fluorophenoxy)-3-(trifluoromethyl)phenyl)-1-fluorovinyl)pyrazin-2-yl)isothiazole]: the IC50 at DGKζ and at DGKα was at most 20 nM throughout.

For the compound `F/C(=C\c1ccc(Oc2ccccc2F)c(C(F)(F)F)c1N1CCCC2(CCN(CC3CC3)CC2)C1)c1cncc(N2CC(F)(F)C2)n1` [Example 57, (Z)-9-(Cyclopropylmethyl)-2-(6-(2-(6-(3,3-difluoroazetidin-1-yl)pyrazin-2-yl)-2-fluorovinyl)-3-(2-fluorophenoxy)-2-(trifluoromethyl)phenyl)-2,9-diazaspiro[5.5]undecane], the half-maximal inhibitory concentration (IC50) on DGKζ and at DGKα was at most 20 nM in each case.

For `CCN1CCC2(CCCN(c3c(/C=C(\F)c4cncc(N5CCC(F)(F)C5)n4)ccc(Oc4ccccc4F)c3C(F)(F)F)C2)CC1` [Example 58, (Z)-2-(6-(2-(6-(3,3-Difluoropyrrolidin-1-yl)pyrazin-2-yl)-2-fluorovinyl)-3-(2-fluorophenoxy)-2-(trifluoromethyl)phenyl)-9-ethyl-2,9-diazaspiro[5.5]undecane], the IC50 at DGKζ and on DGKα was at most 20 nM each time.

For the compound `F/C(=C\c1ccc(Oc2ccccc2F)c(C(F)(F)F)c1N1CCCC2(CCN(CC3CC3)CC2)C1)c1cncc(N2CCC(F)(F)C2)n1` [Example 59, (Z)-9-(Cyclopropylmethyl)-2-(6-(2-(6-(3,3-difluoropyrrolidin-1-yl)pyrazin-2-yl)-2-fluorovinyl)-3-(2-fluorophenoxy)-2-(trifluoromethyl)phenyl)-2,9-diazaspiro[5.5]undecane], the IC50 at DGKζ and at DGKα was at most 20 nM each time.

By IC50 is commonly meant the concentration that inhibits the measured activity by half.
